≈ marks a conversion by molar mass, not a printed value. Where “and” joins values, the source holds several entries; their conditions need not be identical. Equal entries are not always repeated. Where two headings read alike, the source gives them in different places.
Key:
[1] = tested on: Herpes simplex virus type 1 (MacIntyre strain); test: CPE assay, HSV-1 specificity; assay type: cell-based; conditions: CPE assay with MDCK or Vero cells
Description: (§1) To determine whether the fractions are specific RSV inhibitors rather than general antiviral agents, the inventors tested them against influenza type A/Shangdong/09/93 (H3N2), herpes simplex type 1 (MacItyre), and herpes simplex type 2 (MS) using the CPE assay system.
(§2) CJ4-16-4 was tested using influenza type A, herpes simplex virus type 1, and herpes simplex virus type 2 using the CPE assay with MDCK or Vero cells.

[2] = tested on: Influenza A-Shangdong/09/93 (H3N2); test: CPE assay, influenza A specificity; assay type: cell-based, influenza type A; conditions: CPE assay with MDCK or Vero cells
Description: as §1, §2

[3] = tested on: MDCK cells; test: Cytotoxicity in MDCK cells; conditions: isolated compounds
[4] = tested on: RSV-A2; test: CPE assay, RSV-A2 in Hep-2 cells; conditions: Hep-2 cells, CPE assay
Description: The cell line was propagated in MEM supplemented with 10% heat-inactivated fetal bovine serum (FBS) containing 100 μg/ml of antibiotics (streptomycin/penicillin). […] The overnight medium (MEM containing 10% FBS) was removed, and wells were rinsed twice with 1× phosphate buffer saline (PBS, 200 μl) before adding 10×TCID50 of RSV suspension in fresh medium (MEM plus 2% FBS) to each well, except for cell only wells. […] CellTiter 96 Aqueous Non-Radioactive Cell Proliferation Assay (Promega) was used to monitor the antiviral activity following the manufacturer's instruction. After incubation, the cells were rinsed twice with 200 μl of 1×PBS prior to the addition of 100 μl of fresh medium (MEM plus 10% FBS). […] The extent of cell viability was measured at 490 nm using an ELISA reader, and the absorbance was used to calculate percent inhibition. Antiviral activity of each EB fraction or ribavirin is expressed as IC50, which represents the concentration of the test substance required to reduce the virus infection (as measured by the destruction of the host cells) by 50%.
Hep-2 cells were used in the CPE assay to determine anti-RSV properties.

[5] = tested on: Vero cells; test: Cytotoxicity (MTS) in uninfected Vero cells; conditions: isolated compounds
[6] = tested on: Hep-2 cells; test: Cytotoxicity (MTS) in uninfected Hep-2 cells; conditions: isolated compounds
[7] = tested on: RSV (Long strain); test: CPE assay, RSV-Long in Hep-2 cells; assay type: cell-based, respiratory syncytial virus
[8] = tested on: RSV B; test: CPE assay, RSV-B in Hep-2 cells; assay type: cell-based, respiratory syncytial virus
[9] = tested on: Herpes simplex virus type 2 (MS-strain); test: CPE assay, HSV-2 specificity; assay type: cell-based; conditions: CPE assay with MDCK or Vero cells
Description: as §1, §2

[10] = tested on: RSV-Long (Cotton Rat adapted strain); test: CPE assay, RSV-Long cotton rat adapted strain; assay type: cell-based, respiratory syncytial virus; conditions: Hep-2 cells, CPE assay
[11] = in vitro; conditions: African green monkey
[12] = tested on: RSV-Long; test: Plaque reduction assay (PRA); assay type: cell-based; conditions: human respiratory syncytial virus, HEp-2; Table 3, plaque reduction assay
Description: The materials and methods used for PRA are as follows. […] The overlay was prepared by mixing 1 part of 1.2% SeaPlaque and 1 part 2×MEM containing 4% FBS, plus appropriate concentrations of each EB fraction or ribavirin. Each concentration of the EB fraction or ribavirin was tested in duplicate wells. After 7 days, the agarose was carefully removed and cells were rinsed twice with 2 ml of PBS. The cell monolayer was fixed using 0.2% crystal violet in 20% methanol at room temperature. After 30 minutes, the fixer was removed by washing with deionized water, and the plates were air-dried prior to counting plaques. The number of plaques obtained for each fraction or ribavirin was expressed as a percentage of the control. The percentage values obtained were used to calculate IC50 values.

[13] = tested on: RSV-Long; test: Time of addition, CPE assay; assay type: cell-based, respiratory syncytial virus; conditions: human respiratory syncytial virus
Description: Determine the Time of Addition for EB Fractions. […] This activity is related to the life cycle of the virus and the step in the cycle where the compounds act. In this example, experiments were performed to investigate the effect of the time of addition of EB fractionated products on anti-RSV activity.
Mechanism of action studies were performed as follows. Mechanism of action studies were performed using CJ4-16-4 in a CPE assay with Hep-2 cells.

[14] = tested on: RSV; test: Limited pretreatment of host cells, CPE assay; assay type: cell-based, respiratory syncytial virus; conditions: removed before infection
Description: A limited pretreatment of host cells with EB fractions was investigated as follows. […] The cells were incubated in fresh medium without the test article. After 7 days, the viral inhibition was evaluated using CPE assay protocol.

[15] = in vitro; conditions: human
[16] = tested on: RSV; test: Viral yield assay (VYA); assay type: cell-based, respiratory syncytial virus
Description: The materials and methods used for VYA are as follows. […] Each concentration of the test articles or control drug was tested in triplicate wells. […] The aliquots from each of the eight wells of a given column were transferred to the first column of a fresh 96-well monolayer culture of Hep-2 cells. The contents were mixed and serially diluted across the remaining columns of the secondary plate. Each column of the original primary plate was diluted across a separate plate in this manner. The cultures were incubated for 7 additional days, and the end point was monitored by CPE assay as described above.

[17] = tested on: RSV A2; test: Cotton rat RSV infection model, pulmonary titer
Description: All groups consisted of four randomly selected cotton rats. All test materials were administered intraperitoneally with once daily dosing. The placebo group was administered distilled water at volumes and schedules identical to the other groups receiving investigational test articles. In general, timing of administration of ribavarin to the ribavarin-treated group paralleled that of the other treatment groups except that initiation of dosing was on Day 1 for Experiments 1 and 2 and Day 0 for Experiment 3. The dose of ribavarin was 90 mg/kg/day in Experiments 1 and 3 and 180 mg/kg/day in Experiment 2. All animals were inoculated intranasally with approximately 100 median cotton rat infectious doses (CRID50) of RSV A2 on Day 0. Experiments were terminated on either Day 3 or 4 post-infection. […] On the day that the experiment was terminated, all CRs were sacrificed using CO2 to asphyxiate the animals. The lungs from the animals were subsequently removed. The lungs of sacrificed animals were removed, rinsed in sterile phosphate-buffered saline (PBS; pH 7.2) and weighed. Each set of lungs was then transpleurally lavaged using 3 ml of 2% FCS-MEM media. The resulting lung fractions were kept on ice until they were assayed for RSV. The lung fractions of animals from each group were tested for the levels of RSV present.

[18] = tested on: RSV-Long; test: Viral RNA analysis (RiboGreen); assay type: cell-based, respiratory syncytial virus; conditions: for RNA Concentration: three days
Description: The method for analysis of viral RNA is as follows. Six well plates were infected with 1 ml stock of RSV-Long (10×TCID50) diluted 1:20 in infection medium (DMEM+2% FBS). The plates were incubated in 37° C. incubators for 60 min, after which the inoculum was removed and the plates were rinsed. […] Each concentration was added in duplicate. […] After three days, the culture supernatants were transferred into clean conical tubes and subjected to centrifugation at low speed to remove cell debris. […] RNA was extracted using a commercial RNA extraction kit purchased from Epicentre Technologies (Madison, WI). The procedure was performed according to the manufacturer's instructions, and samples were stored at −20° C. The level of viral RNA in each sample was determined using the RiboGreen® RNA quantitative kit (Molecular Probes, Eugene, Oreg.) according the manufacturer's instructions.

[19] = human respiratory syncytial virus, HEp-2, Table 2, extracted fractions, average of two or three experiments
[20] = 90 mg/kg/day B.I.D i.p. D0-D3, water, harvest day 4

**Q.** For `O=C(/C=C/c1ccc(O)c(O)c1)O[C@H]1[C@H](O)C[C@](O)(C(=O)O)C[C@H]1OC(=O)/C=C/c1ccc(O)c(O)c1` [CJ2-27-4, 4,5-dicaffeoylquinic acid], which “EC50, Herpes simplex virus type 1 (MacIntyre strain)” value [1] is on record?
**A.** >50 µg/mL

**Q.** What about the “EC50, Influenza A-Shangdong/09/93 (H3N2)” value [2] of the same compound?
**A.** >50 µg/mL

**Q.** What about the “CC50, MDCK” value [3] of the same compound?
**A.** >200 µg/mL

**Q.** What about the “EC50, RSV-A2” value [4] of the same compound?
**A.** 0.521 µg/mL (≈ 1.01 µM)

**Q.** What about the “CC50, Vero” value [5] of the same compound?
**A.** >200 µg/mL

**Q.** What about the “CC50, Hep 2” value [6] of the same compound?
**A.** >200 µg/mL

**Q.** And the “EC50, RSV-Long” value ([7]; Hep-2 cells, CPE assay)?
**A.** 0.052 µg/mL (≈ 0.101 µM)

**Q.** What about the “EC50, RSV-B (Washington)” value ([8]; Hep-2 cells, CPE assay) of the same compound?
**A.** 0.218 µg/mL (≈ 0.422 µM)

**Q.** And the “EC50, Herpes simplex virus type 2 (MS-strain)” value [9]?
**A.** >50 µg/mL

**Q.** What about the “EC50, RSV-Long (Cotton Rat adapted strain)” value [10] of the same compound?
**A.** 5.519 µg/mL (≈ 10.7 µM)

**Q.** For `NC(=O)c1ncn([C@@H]2O[C@H](CO)[C@@H](O)[C@H]2O)n1` [Ribavirin], which CC50 at 7 days [11] is on record?
**A.** > 100 µg/mL

**Q.** What about the IC50 [12] of the same compound?
**A.** 3.84 µg/mL (≈ 15.7 µM)

**Q.** What about the IC50 ([13]; addition 0 h, 10×TCID50 RSV-Long, Hep-2) of the same compound?
**A.** 3.6 ± 0.36 µg/mL (≈ 14.7 µM)

**Q.** And the IC50 ([13]; addition +7 h post-infection)?
**A.** 3.9 ± 0.64 µg/mL (≈ 16 µM)

**Q.** What about the IC50 ([13]; addition +26 h post-infection) of the same compound?
**A.** 4.43 ± 0.88 µg/mL (≈ 18.1 µM)

**Q.** And the IC50 ([14]; human respiratory syncytial virus, pre-treatment time 4 hrs, read-out: IC50)?
**A.** > 50 µg/mL

**Q.** What about the IC50 ([14]; pre-treatment time 0 hrs) of the same compound?
**A.** >50 µg/mL

**Q.** What about the IC50 ([14]; pre-treatment time 8 hrs) of the same compound?
**A.** >50 µg/mL

**Q.** What about the IC50 ([14]; pre-treatment time 24 hrs) of the same compound?
**A.** >50 µg/mL

**Q.** What about the CC50 at 7 days [15] of the same compound?
**A.** 76.4 ± 4.4 µg/mL (≈ 313 µM)

**Q.** And the “Mean Titer” value ([16]; 3.1 μg/ml)?
**A.** 3 log 10

**Q.** And the “Reduction of viral titer” value ([16]; 3.1 μg/ml)?
**A.** 1 log10

**Q.** What about the “Mean Titer” value ([16]; 25.0 μg/ml) of the same compound?
**A.** 2 log 10

**Q.** What about the “Reduction of viral titer” value ([16]; 25.0 μg/ml) of the same compound?
**A.** 2 log10

**Q.** What about the IC50 [7, 19] of the same compound?
**A.** 3.8 ± 0.2 µg/mL (≈ 15.6 µM)

**Q.** And the Reduction ([17]; 90 mg/kg/day B.I.D i.p. D0-D3, vs placebo)?
**A.** 2.9 Log 10

**Q.** What about the “RSV Pulmonary Titer Mean ± SD” value [17, 20] of the same compound?
**A.** 1.5 ± 1.8 log10/g lung

**Q.** What about the “RSV Pulmonary Titer in individual CR (A-D)” value [17, 20] of the same compound?
**A.** 2.8 log10/g lung and 3.3 log10/g lung and 0 log10/g lung (2×)

**Q.** What about the “reduction of mean viral titer” value ([17]; Experiment 1) of the same compound?
**A.** 2.5 logs

**Q.** And the “RSV pulmonary Mean Titers ± SD” value ([17]; Experiment 1: 100 mg/kg/day i.p. (ribavirin 90 mg/kg/day), harvest Day 4)?
**A.** 3.1 ± 0.29 log 10

**Q.** What about the “reduction of mean viral titer” value ([17]; Experiment 2) of the same compound?
**A.** 2.5 logs

**Q.** And the “RSV pulmonary Mean Titers ± SD” value ([17]; Experiment 2: 100 mg/kg/day i.p. from Day -1 (ribavirin 180 mg/kg/day), harvest Day 3)?
**A.** 2.3 ± 0.4 log 10

**Q.** And the “reduction of mean viral titer” value ([17]; Experiment 3)?
**A.** 2.5 logs

**Q.** And the “RSV pulmonary Mean Titers ± SD” value ([17]; Experiment 3: 250 mg/kg/day i.p. from Day -1 (ribavirin 90 mg/kg/day), harvest Day 3)?
**A.** 2.2 ± 1.5 log 10

**Q.** And the “Overall Mean Titer” value ([17]; three experiments)?
**A.** 2.53 ± 0.73 log 10

**Q.** What about the “reduction of overall mean viral titer” value ([17]; three experiments) of the same compound?
**A.** 2.5 logs

**Q.** And the “animals with no detectable virus” value ([17]; three experiments combined)?
**A.** 1 out of 12

**Q.** What about the IC50 [8, 19] of the same compound?
**A.** 3.2 ± 0.5 µg/mL (≈ 13.1 µM)

**Q.** What about the “RNA Concentration” value ([18]; drug concentration 1 μg/ml) of the same compound?
**A.** 450 ng/mL

**Q.** And the “RNA Concentration” value ([18]; drug concentration 20 μg/ml)?
**A.** 225 ng/mL

**Q.** What about the “reduction of viral RNA” value ([18]; drug concentration increased from 1 to 20 μg/ml) of the same compound?
**A.** 2 fold

Reference: patent US20060020029A1, “Pharmaceutical compositions from ethnobotanicals” (priority 2004, published 2006)
